Numbers after ± are expanded uncertainties.
How the values were obtained:
[1] = for Triple point temperature: Crystal 2, DTA; for vapor or sublimation pressure: Crystal, Calculated from knudsen effusion weight loss
[2] = Molar enthalpy of transition or fusion; conditions: Crystal 2; DSC
[3] = molar heat capacity at constant pressure; conditions: 101.33 kPa, Small sample (50 mg) DSC

CC(C)c1nc2ccccc2[nH]1 [1H-benzimidazole, 2-(1-methylethyl)-]
Triple point temperature [1]: 410.4 ± 0.4 K
Molar enthalpy of transition or fusion [2]: 0.239 ± 0.0478 kcal/mol
molar heat capacity at constant pressure ([3]; 268.15 K, Crystal 2): 197 ± 3.9 J/K/mol
molar heat capacity at constant pressure ([3]; 270.15 K, Crystal 2): 199 ± 4 J/K/mol
molar heat capacity at constant pressure ([3]; 275.15 K, Crystal 2): 202.8 ± 4.1 J/K/mol
molar heat capacity at constant pressure ([3]; 280.15 K, Crystal 2): 206.9 ± 4.1 J/K/mol
molar heat capacity at constant pressure ([3]; 285.15 K, Crystal 2): 210.8 ± 4.2 J/K/mol
molar heat capacity at constant pressure ([3]; 290.15 K, Crystal 2): 214.4 ± 4.3 J/K/mol
molar heat capacity at constant pressure ([3]; 295.15 K, Crystal 2): 218.7 ± 4.4 J/K/mol
molar heat capacity at constant pressure ([3]; 298.15 K, Crystal 2): 220.6 ± 4.4 J/K/mol
molar heat capacity at constant pressure ([3]; 300.15 K, Crystal 2): 221.7 ± 4.4 J/K/mol
molar heat capacity at constant pressure ([3]; 305.15 K, Crystal 2): 224.5 ± 4.5 J/K/mol
molar heat capacity at constant pressure ([3]; 310.15 K, Crystal 2): 228 ± 4.6 J/K/mol
molar heat capacity at constant pressure ([3]; 315.15 K, Crystal 2): 230.9 ± 4.6 J/K/mol
molar heat capacity at constant pressure ([3]; 320.15 K, Crystal 2): 234.6 ± 4.7 J/K/mol
molar heat capacity at constant pressure ([3]; 325.15 K, Crystal 2): 238 ± 4.8 J/K/mol
molar heat capacity at constant pressure ([3]; 330.15 K, Crystal 2): 240.7 ± 4.8 J/K/mol
molar heat capacity at constant pressure ([3]; 335.15 K, Crystal 2): 245.2 ± 4.9 J/K/mol
molar heat capacity at constant pressure ([3]; 340.15 K, Crystal 2): 248.9 ± 5 J/K/mol
molar heat capacity at constant pressure ([3]; 345.15 K, Crystal 2): 252.7 ± 5 J/K/mol
molar heat capacity at constant pressure ([3]; 350.15 K, Crystal 2): 256 ± 5.1 J/K/mol
molar heat capacity at constant pressure ([3]; 355.15 K, Crystal 2): 260 ± 5.2 J/K/mol
molar heat capacity at constant pressure ([3]; 360.15 K, Crystal 2): 264 ± 5.3 J/K/mol
molar heat capacity at constant pressure ([3]; 365.15 K, Crystal 2): 267.4 ± 5.3 J/K/mol
molar heat capacity at constant pressure ([3]; 370.15 K, Crystal 2): 272 ± 5.4 J/K/mol
molar heat capacity at constant pressure ([3]; 375.15 K, Crystal 2): 276.3 ± 5.5 J/K/mol
molar heat capacity at constant pressure ([3]; 380.15 K, Crystal 2): 280.1 ± 5.6 J/K/mol
molar heat capacity at constant pressure ([3]; 385.15 K, Crystal 2): 284.6 ± 5.7 J/K/mol
molar heat capacity at constant pressure ([3]; 425.15 K, Crystal 1): 285.7 ± 5.7 J/K/mol
molar heat capacity at constant pressure ([3]; 430.15 K, Crystal 1): 288.4 ± 5.8 J/K/mol
molar heat capacity at constant pressure ([3]; 435.15 K, Crystal 1): 292.2 ± 5.8 J/K/mol
molar heat capacity at constant pressure ([3]; 440.15 K, Crystal 1): 298.2 ± 6 J/K/mol
molar heat capacity at constant pressure ([3]; 445.15 K, Crystal 1): 301.3 ± 6 J/K/mol
molar heat capacity at constant pressure ([3]; 450.15 K, Crystal 1): 308.5 ± 6.2 J/K/mol
molar heat capacity at constant pressure ([3]; 455.15 K, Crystal 1): 310.9 ± 6.2 J/K/mol
molar heat capacity at constant pressure ([3]; 460.15 K, Crystal 1): 314.8 ± 6.3 J/K/mol
molar heat capacity at constant pressure ([3]; 463.15 K, Crystal 1): 316.2 ± 6.3 J/K/mol

CCCc1nc2ccccc2[nH]1 [1H-benzimidazole, 2-propyl-]
vapor or sublimation pressure ([1]; 344.53 K): 4.28e-05 ± 2.2e-06 kPa
vapor or sublimation pressure ([1]; 352.14 K): 9.52e-05 ± 4.8e-06 kPa
vapor or sublimation pressure ([1]; 355.33 K): 0.000131 ± 7e-06 kPa
vapor or sublimation pressure ([1]; 362.01 K): 0.000266 ± 1.3e-05 kPa
vapor or sublimation pressure ([1]; 364.33 K): 0.000324 ± 1.6e-05 kPa
Triple point temperature [1]: 385.8 ± 0.5 K
Molar enthalpy of transition or fusion [2]: 0.359 ± 0.0478 kcal/mol
molar heat capacity at constant pressure ([3]; 268.15 K, Crystal 2): 190.5 ± 3.8 J/K/mol
molar heat capacity at constant pressure ([3]; 270.15 K, Crystal 2): 192.6 ± 3.9 J/K/mol
molar heat capacity at constant pressure ([3]; 275.15 K, Crystal 2): 197.1 ± 3.9 J/K/mol
molar heat capacity at constant pressure ([3]; 280.15 K, Crystal 2): 201.5 ± 4 J/K/mol
molar heat capacity at constant pressure ([3]; 285.15 K, Crystal 2): 206.1 ± 4.1 J/K/mol
molar heat capacity at constant pressure ([3]; 290.15 K, Crystal 2): 210.1 ± 4.2 J/K/mol
molar heat capacity at constant pressure ([3]; 295.15 K, Crystal 2): 214.4 ± 4.3 J/K/mol
molar heat capacity at constant pressure ([3]; 298.15 K, Crystal 2): 217.1 ± 4.3 J/K/mol
molar heat capacity at constant pressure ([3]; 300.15 K, Crystal 2): 218.7 ± 4.4 J/K/mol
molar heat capacity at constant pressure ([3]; 305.15 K, Crystal 2): 223.2 ± 4.5 J/K/mol
molar heat capacity at constant pressure ([3]; 310.15 K, Crystal 2): 228.3 ± 4.6 J/K/mol
molar heat capacity at constant pressure ([3]; 315.15 K, Crystal 2): 234 ± 4.7 J/K/mol
molar heat capacity at constant pressure ([3]; 320.15 K, Crystal 2): 239.7 ± 4.8 J/K/mol
molar heat capacity at constant pressure ([3]; 325.15 K, Crystal 2): 245.7 ± 4.9 J/K/mol
molar heat capacity at constant pressure ([3]; 330.15 K, Crystal 2): 252.2 ± 5 J/K/mol
molar heat capacity at constant pressure ([3]; 335.15 K, Crystal 2): 258.6 ± 5.2 J/K/mol
molar heat capacity at constant pressure ([3]; 340.15 K, Crystal 2): 263.7 ± 5.3 J/K/mol
molar heat capacity at constant pressure ([3]; 345.15 K, Crystal 2): 268.3 ± 5.4 J/K/mol
molar heat capacity at constant pressure ([3]; 350.15 K, Crystal 2): 274.9 ± 5.5 J/K/mol
molar heat capacity at constant pressure ([3]; 355.15 K, Crystal 2): 282.4 ± 5.7 J/K/mol
molar heat capacity at constant pressure ([3]; 360.15 K, Crystal 2): 292.6 ± 5.8 J/K/mol
molar heat capacity at constant pressure ([3]; 365.15 K, Crystal 2): 306.3 ± 6.1 J/K/mol
molar heat capacity at constant pressure ([3]; 400.15 K, Crystal 1): 280.1 ± 5.6 J/K/mol
molar heat capacity at constant pressure ([3]; 405.15 K, Crystal 1): 285.2 ± 5.7 J/K/mol
molar heat capacity at constant pressure ([3]; 410.15 K, Crystal 1): 290.7 ± 5.8 J/K/mol
molar heat capacity at constant pressure ([3]; 415.15 K, Crystal 1): 297.5 ± 6 J/K/mol
molar heat capacity at constant pressure ([3]; 420.15 K, Crystal 1): 306.5 ± 6.1 J/K/mol
